Source: patent publication US20040185110A1, “Formulations of low solubility bioactive agents and processes for making the same” (priority 2002, published 2004)

Experiment: Solubility of Compound A
Type: physicochemical
Procedure: The present invention addresses the prior art issues of low bioavailability of certain drugs such as COX-2 selective inhibitors useful for the treatment of, for example, arthritis and rheumatic pain. […] Compound A, a COX-2 selective inhibitor, is a white to off-white odorless crystalline, anhydrous powder. At room temperature it is soluble in methylene chloride, and acetonitrile. […] The aqueous solubility of the drug is less than 2 µg/mL at 22 degrees Celsius at pH 6.2.

CS(=O)(=O)c1ccc(/C(=C2\CCOC2=O)c2ccc(Br)cc2)cc1 [Compound A, (Z)-3-[1-(4-bromophenyl)-1-(4-methylsulfonylphenyl)methylidine]-dihydrofuran-2-one]
solubility in methylene chloride, and acetonitrile (room temperature): soluble
solubility in water (water): poorly soluble
